The results in this text go back to patent US10472355B2, “Cancer treatment utilizing SP-141 to bind with MDM2 and act as an inhibitor of MDM2 expression” (Texas Tech University System, priority 2014, dated 2019).

The subject of one data set is MCF-7 xenograft tumors. In words: MCF-7 xenograft tumor model in nude mice. In kind it is in vivo. How it is done: (§1) As evidence, SP-141 was administered to nude mice bearing MCF-7 and MDA-MB-468 xenograft tumors. SP-141 was administered by intraperitoneal (i.p.) injection at doses of 40 mg/kgn 1 per day for 42 and 30 days, respectively.
(§2) FIGS. 13-16 are presented to illustrate that. SP-141 suppresses breast xenograft tumor growth in vivo. FIGS. 13A and 13B illustrate tumor mass in nude mice bearing MCF-7 and MDA-MB-468, respectively. The xenograft tumors were treated with SP-141, which was administered by i.p. injection at 40 mg/kg 1 per day, 5 days per week for 42 and 30 days, respectively. FIGS. 14A and 14B illustrate the tumors after they were removed at the end of the experiments. The mice were also monitored for changes in body weight as a surrogate marker for toxicity in both the MCF-7 (as shown in FIG. 15A) and MDA-MB-468 (as shown if FIG. 15B) xenograft models. At the termination of the experiments, H&E staining of the paraffin sections of some organs from the mice bearing MCF-7 xenograft tumors was performed. (Mean±s.e.m., n>10 for each data point, two-sided Student's t-test, *P<0.01).

Data set [1] concerns MDA-MB-231-Luc breast cancer cells. In words: Experimental metastasis assay. The format is in vivo, nude mice. The note with it: i.p. 20 mg/kg per day for 2 weeks; days 8 and 15. As to the method:
To validate the anti-metastatic effects of SP-141 in vivo, an experimental metastasis assay can be performed. MDA-MB-231-Luc breast cancer cells can be intravenously injected into a tail vein of nulnu mice. The animals are randomly divided into a treatment group and a control group after cell injection. SP-141 can be administered by i.p injection at doses of 20 mg/kg, 1 per day for 2 weeks.
(§3) FIGS. 28-30 are provided to illustrate that SP-141 inhibits cell metastasis in vitro and in vivo. MDA-MB-231 cells were grown to confluence in a six-well plate, illustrated in FIG. 28. A scratch was made at experimental time zero, and then the cells were exposed to various concentrations of SP-141. The wells were imaged at different time points. All the experiments were repeated at least three times. The effects of SP-141 on the expression of EMT-related proteins in MDA-MB-231 cells is shown in the western blot analysis provided in FIG. 29. About 1×10^ 6 MDA-MB-231-Luc cells were intravenously injected into a tail vein of nude mice. SP-141 was administered by i.p. injection at doses of 20 mg kg, 1 per day, 5 days per week for 2 weeks. The luciferase signals in the mice were detected and photographed using an MS in vivo image system on days 1, 8, and 15, as shown in FIG. 30.

The subject of data set [2] is MDA-MB-468 xenograft tumors. As to the kind of experiment: MDA-MB-468 xenograft tumor model in nude mice. The note with it: i.p. 40 mg/kg per day. The format is in vivo. As to the method: as §1, §2
Data set [3] concerns the target T1, MDM2 protein (Homo sapiens, UniProt Q00987). As to the kind of experiment: Biacore assay (MDM2 immobilized on CM5 sensor chip). The note with it: read-out: KD for binding to the MDM2 protein. The source says:
(§4) The reduction is proportional to dose. Thus, SP-141 can occupy the p53-binding site on MDM2 as illustrated by FIG. 6. […] Thus, SP-141 serves as a specific MDM2 inhibitor with a high binding capacity for the MDM2 protein.
(§5) FIG. 7A illustrates a chart illustrating % inhibition. This is illustrative of competitive binding to recombinant human MDM2 proteins using an FP-based binding assay. […] Similarly, FIG. 7B illustrates a chart or responses illustrative of competitive KD values of SP-141 to MDM2 as determined using the Biacore assay. The MDM2 protein was immobilized on a CM5 sensor chip. […] It is noteworthy that all the assays were performed in triplicate, and all the experiments were repeated at least three times.
In general terms: Surface plasmon resonance follows binding to a sensor surface in real time, without labels.

For data set [4], the target named is T1, MDM2 protein. As to the kind of experiment: FP-based competitive binding assay.
Source text: as §4, §5

For data set [5], the system named is MCF-7 cells (both p53 wt and p53 KD). In words: Proliferation assay. The format is cell-based, human. To be noted: 0.5-mM concentration, 24 hours. As to the method: (§6) MDA-MB-468 cells are more sensitive to SP-141 treatment at higher concentrations than MCF-7 and MCF-7 p53 KD cells.
(§7) FIGS. 8-12 are presented toillustrate that SP-141 induces breast cancer cell death. In experiments conducted by the inventors, cells were exposed to various concentrations of SP-141 for 72 hours, using the MTT assay to evaluate the cell viability and IC50 value. FIG. 9 provides a photograph of such exposure for 24 hours using the colony formation assay. FIG. 10A illustrates a chart associated with 48 hours for the apoptosis assay and FIG. 10B illustrates a similar chart associated with 24 hours for the proliferation assay. FIG. 11 illustrates 24 hour for the cell cycle distribution assay. FIG. 12 illustrates a western blot analysis of the expression of MDM2 and proteins related to apoptosis and cell cycle arrest in human breast cancer cells. All these assays were performed in triplicate, and all the experiments were repeated at least three times (mean±s.e.m., n=9 for each data point, two-sided Student's t-test. *Po 0.01).

For data set [6], the system named is human breast cancer cell lines. In words: Cell cycle distribution assay. In kind it is cell-based. Set-up: dose or concentration left out as unconfirmed. To be noted: 24 hours. As to the method: as §6, §7
The target of a further data set is GST-MDM2 (Homo sapiens, UniProt Q00987). In words: Biotin-avidin pull-down assay with biotinylated SP-141. In kind it is binding. To be noted: biotin-SP-141 conjugate, avidin beads; purified GST negative control. The source says: As illustrated in FIGS. 2 and 3.
Chain of GST-MDM2 (Q00987 whole entry): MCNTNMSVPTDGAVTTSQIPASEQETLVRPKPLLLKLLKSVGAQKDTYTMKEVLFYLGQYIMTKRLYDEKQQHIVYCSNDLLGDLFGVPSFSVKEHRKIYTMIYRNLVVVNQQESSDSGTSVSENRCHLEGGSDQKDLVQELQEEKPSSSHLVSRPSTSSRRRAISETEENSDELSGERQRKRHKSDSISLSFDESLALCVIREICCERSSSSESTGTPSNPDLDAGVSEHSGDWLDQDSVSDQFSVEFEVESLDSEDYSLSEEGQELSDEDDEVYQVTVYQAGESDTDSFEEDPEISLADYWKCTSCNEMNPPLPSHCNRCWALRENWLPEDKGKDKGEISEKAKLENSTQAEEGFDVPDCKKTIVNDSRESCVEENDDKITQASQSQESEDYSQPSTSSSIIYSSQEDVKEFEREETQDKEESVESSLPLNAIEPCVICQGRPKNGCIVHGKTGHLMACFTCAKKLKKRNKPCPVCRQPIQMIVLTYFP
A western blot analysis is illustrated in FIG. 5. […] Purified GST was used as a negative control. The bound protein was detected using anti-MDM2 and anti-GST antibodies.
The bound protein was detected using anti-MDM2 antibody.

In data set [7] the test system is MDM2 protein in MCF-7 and MDA-MB-468 cells. In words: MDM2 protein degradation (cycloheximide chase, western blot). To be noted: 0.5 mM SP-141 24 hours, then cycloheximide. The format is cell-based, human. How it is done:
SP-141 can also induce MDM2 protein degradation. Specifically. SP-141 can induce MDM2 inhibition in vitro and in vivo. […] The p53 protein was stabilized in MCF-7 cells, but not in the p53 mt […] cells.
MCF-7 and MDA-MB-468 cells were treated with SP-141 (0.5 mM), and then exposed to cycloheximide (CHX, 15 mg ml 1), an inhibitor of protein synthesis. The graphs in FIG. 20 show the quantification of the western blot data. Cells were treated with SP-141 (0.5 mM) for 24 hours, and then exposed to a proteasome inhibitor, MG 132 (25 mM), for an additional 6 hours. The protein levels of MDM2 were detected with western blot analysis, as illustrated in FIG. 21. Further, cells were transfected with MDM2 and ubiquitin plasmids, followed by treatment with SP-141 for 24 hours. The cells were then exposed to MG132 (25 mM) for an additional 6 hours, and the lysates were subjected to immunoprecipitation with an MDM2 antibody. Cells were transfected with a wild-type MDM2 plasmid or mutant MDM2 plasmid without E3 ligase activity (C464A). After treatment with SP-141 for 24 hours, MDM2 levels were detected with western blot analysis, as illustrated in FIG. 23. Representative images of MDM2 immunofluorescence in control and SP-141 (1 mM)-treated cells are illustrated in FIG. 24. B-actin and DAPI were used as internal references. All the experiments were repeated three times.

The test system of data set [8] is MDM2 protein. In words: Western blot of MDM2 expression in breast cancer cells. In kind it is cell-based, human. To be noted: multiple tested cell lines. How it is done:
SP-141 also effects MDM2 expression. […] In the MCF-7 (p53 wt) cells, the wild-type p53 protein level increased, in accordance with an expected inhibition of MDM2. […] SP-141 increases the expression of cleaved PARP and Bax and decreases the expression of Bcl-2 and Cyclin E in a p53-independent manner.
as §7

The test system of data set [9] is MDA-MB-231 human breast cancer cells. As to the kind of experiment: Wound healing assay (cell migration). In kind it is cell-based. To be noted: 0.1 or 0.2 mM SP-141, MDA-MB-231 cells. How it is done:
SP-141 inhibits cell migration in vitro and in vivo. A crucial component of tumor cell invasion is cell migration. A wound healing assay can be used to investigate the effect of SP-141 on cancer cell motility, using MDA-MB-231 human breast cancer cells. The cells can be treated with the vehicle, or with 0.1 or 0.2 mM of SP-141, in order to evaluate the cell migration into the wound made in the cell monolayer.
as §3

The next data set concerns breast cancer cell lines. In words: Colony formation assay. The format is cell-based, human. The note with it: 24 hours exposure. How it is done:
as §7

The subject of the next data set is p53 KO MCF-7 cells. In words: Apoptosis assay. In kind it is cell-based, human. To be noted: 1-mM SP-141, 48 hours. As to the method: as §7
The subject of the next data set is p53 mt MDA-MB-468 cells. In words: Apoptosis assay. To be noted: 1-mM SP-141, 48 hours. In kind it is cell-based, human. As to the method: as §7
In the next data set the test system is p53 wt MCF-7 cells. In words: Apoptosis assay. In kind it is cell-based, human. The note with it: 1-mM SP-141, 48 hours. As to the method: as §7

T1 sequence (Q00987 whole entry): as above

As a reminder, the Kd is a measure of binding affinity in units of concentration. A word on the Ki: it is a measure of affinity in units of concentration, obtained from inhibition or displacement. Take `COc1ccc2[nH]c3c(-c4cccc5ccccc45)nccc3c2c1` [SP-141, 6-methoxy-1-(naphthalen-1-yl)-9 H-pyrido[3,4-b]indole]: the “Host toxicity monitored by changes in body weight” value in the data set on MCF-7 xenograft tumors (MCF-7 model, i.p. 40 mg/kg per day, 42 days) is given as “no significant host toxicity”; in data set [2] (MDA-MB-468 model, 30 days), “no significant host toxicity”. Further, the “Inhibition of xenograft tumor growth” value in the data set with MCF-7 xenograft tumors (MCF-7 xenograft, i.p. 40 mg/kg per day, day 42) is reported as 82%; in data set [2] (MDA-MB-468 xenograft, day 30), 80%. Also, the “Organ abnormalities at necropsy / histological examination” value with MCF-7 xenograft tumors (mice bearing MCF-7 xenograft tumors, 40 mg/kg per day) is listed as “no gross organ (liver, lung, kidney, spleen, heart or brain) abnormalities”. For the same compound, the “Effect on metastasis (luciferase signals in lung tissues)” value in data set [1] is on record as “decreases the metastasis of breast cancer cells”. For the same compound, at MDM2 protein [3], the Kd was 43 nM. Moreover, the Ki at MDM2 protein [4] was 28 ± 6 nM. The “Effect on cell proliferation” value in data set [5] was “significant decrease in proliferation”. In addition, the “Effect on cell cycle” value in [6] is “induces cell cycle arrest in the G2 phase”. Besides, the “Binding to MDM2 versus GST (pull-down)” value on GST-MDM2 is “binds to MDM2, but not GST”. For the same compound, the “Degradation rate of the MDM2 protein” value in [7] is recorded as “increased the degradation rate of the MDM2 protein”. Also, the MDM2 protein levels result in the data set on MDM2 protein [8] is “decrease in a concentration-dependent manner”. The “Effect on cell migration into the wound” value in data set [9] is reported as “significantly decreased the cell migration”. Further, the “Effect on cancer cell colony formation” value in the data set on breast cancer cell lines is “inhibit cancer cell colony formation in a concentration-dependent manner”. The “Increase of apoptotic index” value in the data set with p53 KO MCF-7 cells was found to be 7 fold; with p53 mt MDA-MB-468 cells, 11 fold; in the data set with p53 wt MCF-7 cells it was 14 fold.
